Test results taken from BindingDB's records for doi:10.7270/Q2MK6B9H (Nmmlsc, 2009).

Biological target: Ras-related protein Rab-7a (Canis lupus familiaris, UniProt P18067)
Test: inhibition of fluorescent GTP loading on Rab7 – biochemical, dog Rab7, bead multiplex flow cytometry, Bodipy-FL-GTP, pyrazoline series, SAR follow-up (AID 2041)
[1] = inactive by the depositor's call

Ras-related protein Rab-7a, sequence (P18067 whole entry): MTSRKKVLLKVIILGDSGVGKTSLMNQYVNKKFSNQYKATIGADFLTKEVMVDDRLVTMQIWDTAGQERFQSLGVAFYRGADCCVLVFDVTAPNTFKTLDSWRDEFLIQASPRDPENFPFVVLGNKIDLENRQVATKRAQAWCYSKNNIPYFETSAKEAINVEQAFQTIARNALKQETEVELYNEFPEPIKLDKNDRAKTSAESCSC

Structure (SMILES)	EC50 [µM]	EC50 [1] [µM]
O=[N+]([O-])c1ccc([N+]2=N[C-](c3ccccc3)CC2c2ccccc2)cc1 (configuration not stated)	> 30	–
COc1ccccc1C1CC(c2ccccc2)=NN1c1ccccc1 (configuration not stated)	> 30	–
Clc1ccc(N2N=C(c3ccccc3)CC2c2ccccc2)cc1 (configuration not stated)	–	6.64
CC(=O)Oc1ccc(C2=NN(c3ccccc3)C(c3ccccc3)C2)cc1 (configuration not stated)	> 30	–
O=C(O)c1ccc(N2N=C(c3ccccc3)CC2c2ccccc2)cc1 (configuration not stated)	> 30	–
COc1ccc(C2=NN(c3ccccc3)C(c3ccccc3C(F)(F)F)C2)cc1 (configuration not stated)	> 30	–
O=S(=O)(c1ccc(N2N=C(c3ccccc3)CC2c2ccccc2)cc1)C(F)F (configuration not stated)	–	0.508
NS(=O)(=O)c1ccc(N2N=C(c3ccc(Cl)cc3)CC2c2ccccc2)cc1 (configuration not stated)	> 30	–
CCc1ccc(C2=NN(c3ccc(S(N)(=O)=O)cc3)C(c3ccc(F)cc3)C2)cc1 (configuration not stated)	> 30	–
COc1ccc(C2CC(c3ccc(F)cc3)=NN2c2cccc(F)c2)cc1OC (configuration not stated)	22.5	–
COc1ccc(C2CC(c3ccc(Cl)cc3)=NN2c2ccc(S(N)(=O)=O)cc2)cc1 (configuration not stated)	> 30	–
COc1ccc(C2CC(c3cccc(C(F)(F)F)c3)=NN2c2ccc(S(N)(=O)=O)cc2)cc1 (configuration not stated)	> 30	–
COc1ccc(C2CC(c3cccnc3)=NN2c2ccc(S(N)(=O)=O)cc2)cc1 (configuration not stated)	> 30	–
COc1ccc(C2CC(c3ccncc3)=NN2c2ccc(S(N)(=O)=O)cc2)cc1 (configuration not stated)	> 30	–
COc1ccc(C2CC(c3ccc(F)cc3)=NN2c2cc(Cl)ccc2Cl)cc1 (configuration not stated) [2-(2,5-dichlorophenyl)-5-(4-fluorophenyl)-3-(4-methoxyphenyl)-3,4-dihydropyrazole]	11.1	–
COc1ccc(C2=NN(c3ccc(Cl)c(Cl)c3)C(c3ccc(OC)cc3)C2)cc1 (configuration not stated) [2-(3,4-dichlorophenyl)-3,5-bis(4-methoxyphenyl)-3,4-dihydropyrazole]	> 30	–
COc1ccc(C2=NN(c3cccc(F)c3)C(c3ccc(OC)cc3)C2)cc1 (configuration not stated) [2-(3-fluorophenyl)-3,5-bis(4-methoxyphenyl)-3,4-dihydropyrazole]	–	0.104
COc1ccc(C2=NN(c3ccc(S(N)(=O)=O)cc3)C(c3ccc(OC)cc3)C2)cc1 (configuration not stated) [4-[3,5-bis(4-methoxyphenyl)-3,4-dihydropyrazol-2-yl]benzenesulfonamide]	> 30	–
COc1ccc(C2CC(c3ccc(C(F)(F)F)cc3)=NN2c2ccc(S(N)(=O)=O)cc2)cc1 (configuration not stated) [4-[3-(4-methoxyphenyl)-5-[4-(trifluoromethyl)phenyl]-3,4-dihydropyrazol-2-yl]benzenesulfonamide]	> 30	–
COc1ccc(C2CC(c3ccccc3Cl)=NN2c2ccc(S(N)(=O)=O)cc2)cc1 (configuration not stated) [4-[5-(2-chlorophenyl)-3-(4-methoxyphenyl)-3,4-dihydropyrazol-2-yl]benzenesulfonamide]	> 30	–
COc1ccc(C2CC(c3cccc(OC)c3)=NN2c2ccc(S(N)(=O)=O)cc2)cc1 (configuration not stated) [4-[5-(3-methoxyphenyl)-3-(4-methoxyphenyl)-3,4-dihydropyrazol-2-yl]benzenesulfonamide]	> 30	–

The remaining lines, values ahead:

EC50 [µM]	EC50 [1] [µM]	Structure (SMILES)
> 30	–	Cc1onc(-c2ccccc2)c1-c1ccc(S(N)(=O)=O)cc1
> 30	–	Brc1ccc(N2N=C(c3ccccc3)CC2c2ccccc2)cc1 (configuration not stated)
> 30	–	Clc1cccc(N2N=C(c3ccccc3)CC2c2ccccc2)c1 (configuration not stated)
> 30	–	CN(C)c1ccc(C2C[C-](c3ccccc3)N=[N+]2c2ccc([N+](=O)[O-])cc2)cc1 (configuration not stated)
> 30	–	COc1ccc(C2CC(c3ccccc3)=NN2c2ccc(Cl)c(C(=O)O)c2)cc1 (configuration not stated)
> 30	–	Cc1ccc(C2CC(c3ccccc3)=NN2c2ccc(S(N)(=O)=O)cc2)cc1 (configuration not stated)
> 30	–	Cc1cccc(C2CC(c3ccccc3)=NN2c2ccc(S(N)(=O)=O)cc2)c1 (configuration not stated)
> 30	–	COc1ccc(C2CC(c3ccccc3OC)=NN2c2ccc(S(N)(=O)=O)cc2)cc1 (configuration not stated)
> 30	–	COc1ccc(C2CC(c3ccc(C)cc3)=NN2c2ccc(S(N)(=O)=O)cc2)cc1 (configuration not stated)
> 30	–	COc1ccc(C2CC(c3cccc(N(C)C)c3)=NN2c2ccc(S(N)(=O)=O)cc2)cc1 (configuration not stated)
> 30	–	Fc1ccccc1C1CC(c2ccc(Br)cc2)=NN1c1ccc(Br)cc1 (configuration not stated) [2,5-bis(4-bromophenyl)-3-(2-fluorophenyl)-3,4-dihydropyrazole]
> 30	–	Fc1ccc(C2=NN(c3cccc(Br)c3)C(c3ccccc3)C2)cc1 (configuration not stated) [2-(3-bromophenyl)-5-(4-fluorophenyl)-3-phenyl-3,4-dihydropyrazole]
> 30	–	COc1ccc(C2CC(c3ccccc3)=NN2c2ccc(Cl)c(C(=O)O)c2)cc1OC (configuration not stated) [2-chloro-5-[3-(3,4-dimethoxyphenyl)-5-phenyl-3,4-dihydropyrazol-2-yl]benzoic acid]
> 30	–	COc1ccc(C2=NN(c3cccc(F)c3)C(c3ccc(Cl)cc3)C2)cc1 (configuration not stated) [3-(4-chlorophenyl)-2-(3-fluorophenyl)-5-(4-methoxyphenyl)-3,4-dihydropyrazole]
> 30	–	COc1ccc(C2C[C-](c3ccccc3)N=[N+]2c2ccc([N+](=O)[O-])cc2)cc1 (configuration not stated) [3-(4-methoxyphenyl)-2-(4-nitrophenyl)-5-phenyl-3,4-dihydropyrazole]
> 30	–	COc1ccc(C2CC(c3ccccc3)=NN2c2cccc(S(N)(=O)=O)c2)cc1 (configuration not stated) [3-[3-(4-methoxyphenyl)-5-phenyl-3,4-dihydropyrazol-2-yl]benzenesulfonamide]
> 30	–	CN(C)c1ccc(C2CC(c3ccccc3)=NN2c2ccccc2)cc1 (configuration not stated) [4-(2,5-diphenyl-3,4-dihydropyrazol-3-yl)-N,N-dimethylaniline]
> 30	–	NS(=O)(=O)c1ccc(N2N=C(c3ccccc3)CC2c2ccccc2)cc1 (configuration not stated) [4-(3,5-diphenyl-3,4-dihydropyrazol-2-yl)benzenesulfonamide]
> 30	–	NS(=O)(=O)c1ccc(N2N=C(c3ccccc3)CC2c2ccccc2Br)cc1 (configuration not stated) [4-[3-(2-bromophenyl)-5-phenyl-3,4-dihydropyrazol-2-yl]benzenesulfonamide]
> 30	–	COc1ccccc1C1CC(c2ccccc2)=NN1c1ccc(S(N)(=O)=O)cc1 (configuration not stated) [4-[3-(2-methoxyphenyl)-5-phenyl-3,4-dihydropyrazol-2-yl]benzenesulfonamide]
> 30	–	COc1cccc(C2CC(c3ccccc3)=NN2c2ccc(S(N)(=O)=O)cc2)c1 (configuration not stated) [4-[3-(3-methoxyphenyl)-5-phenyl-3,4-dihydropyrazol-2-yl]benzenesulfonamide]
> 30	–	NS(=O)(=O)c1ccc(N2N=C(c3ccccc3)CC2c2ccc(Cl)cc2)cc1 (configuration not stated) [4-[3-(4-chlorophenyl)-5-phenyl-3,4-dihydropyrazol-2-yl]benzenesulfonamide]
> 30	–	COc1ccc(C2CC(C)=NN2c2ccc(S(N)(=O)=O)cc2)cc1 (configuration not stated) [4-[3-(4-methoxyphenyl)-5-methyl-3,4-dihydropyrazol-2-yl]benzenesulfonamide]
> 30	–	COc1ccc(C2CC(c3ccsc3)=NN2c2ccc(S(N)(=O)=O)cc2)cc1 (configuration not stated) [4-[3-(4-methoxyphenyl)-5-thiophen-3-yl-3,4-dihydropyrazol-2-yl]benzenesulfonamide]
> 30	–	COc1ccc(C2CC(c3cccc(F)c3)=NN2c2ccc(S(N)(=O)=O)cc2)cc1 (configuration not stated) [4-[5-(3-fluorophenyl)-3-(4-methoxyphenyl)-3,4-dihydropyrazol-2-yl]benzenesulfonamide]
> 30	–	NS(=O)(=O)c1ccc(N2N=C(c3ccc(Br)cc3)CC2c2ccc(F)cc2)cc1 (configuration not stated) [4-[5-(4-bromophenyl)-3-(4-fluorophenyl)-3,4-dihydropyrazol-2-yl]benzenesulfonamide]
